Measured values published in patent US20050043273A1, “Compositions and methods for inhibiting slit protein and glypican interactions” (priority 2003, published 2005).

How the values were obtained:
[1] = tested on: glypican-1-Fc binding to human full-length Slit-2; assay: ELISA: inhibition of glypican-1-Fc binding to Slit-2
Protocol: Human embryonic kidney 293 cells were transfected with a glypican-1-Fc fusion protein construct using Lipofectamine 2000 and grown in serum-free DMEM containing 1% ITS+. To separate the glycanated form of the proteoglycan (which was used for all studies) from unglycanated core protein, the conditioned medium was applied to a 0.9×8 cm column of DEAE-Sephacel equilibrated with 150 mM NaCl, 50 mM Tris-HCl, pH 8.0. After elution with 50 mM Tris-HCl (pH 8.0) containing 0.6 M NaCl, the glycanated glypican-1-Fc was bound to protein A-Sepharose beads, eluted with 0.1 M glycine, pH 3.0, and immediately neutralized with 1 M Tris, pH 8.0, for storage at −80° C.
293 cells were transfected with the pSecTagB vector (Invitrogen, Carlsbad, Calif.) containing cDNA for the His-tagged uncleavable variant of human full-length Slit-2, in which the nine amino acids encompassing the proteolytic processing site were deleted, producing an uncleavable full-length protein. 1 M NaCl extracts of the 293 cells were incubated with nickel-agarose beads (Qiagen) for 2 hours at 4° C., and after washing, bound protein was eluted with 10 mM Hepes (pH 7.5) containing 250 mM imidazole and 1 M NaCl. Protein concentrations were determined by the Bradford assay. Purity of the recombinant Slit protein was confirmed by SDS-PAGE followed by silver staining.
96-well plates (Corning Costar #9018) were coated overnight with the human full-length Slit-2 in imadazole/NaCl elution buffer at a saturating concentration of 1-5 μg/well, after dilution in PBS. Unbound protein was removed by washing with TBST (10 mM Tris-HCl, pH 7.4, 150 mM NaCl, 0.1% Tween 20), the wells were blocked with 10% FBS in TBST for 2 hours, and then incubated for 18 hours at room temperature with glypican-1-Fc (1 μg/well) in 5 mM PBS (pH 7.2), or in PBS containing varying concentrations of potential inhibitory compositions. Bound glypican was detected using a biotinylated anti-human Fc antibody (Jackson Immunoresearch; 1:250,000 in TBST, for 2 hours), followed by incubation for 20 minutes with HRP-conjugated streptavidin (1:20,000 in TBST). The colorimetric reaction product from the o-phenylenediamine substrate was measured at 450 nm using a Dynatech MRX ELISA plate reader. Nonspecific binding was calculated as the binding of glypican-1-Fc to wells coated with BSA (2 mg/ml solution). Percent inhibition was calculated in relation to parallel assay wells in which no inhibitor was added to the glypican-1 solution. From serial dilutions of a known concentration of glypican-1-Fc directly coated on the wells and the corresponding immunoreactivity absorbance, a standard curve could also be created and used to quantitate the absolute amount of glypican-1-Fc bound.
The glypican-1-Fc and human Slit-2 fusion proteins are prepared as set forth in Example One.

[2] = tested on: vascular endothelial cells; conditions: cited from earlier work
whole blood = conditions: cited from earlier work

Structure (SMILES)	% inhibition of glypican-1 binding to Slit ([1]; 50 μM)	antithrombotic activity [2]	% inhibition of glypican-1 binding to Slit ([1]; 1 μM) [%]	% inhibition of glypican-1 binding to Slit ([1]; 5 μM) [%]	anticoagulant activity (whole blood)	inhibition of glypican binding to Slit proteins (in words) ([1]; ELISA, function of oligosaccharide size, FIG. 1)
CO[C@H]1O[C@H](COS(=O)(=O)O)[C@@H](O[C@@H]2O[C@@H](C(=O)O)[C@@H](O[C@H]3O[C@H](COS(=O)(=O)O)[C@@H](O[C@@H]4O[C@H](C(=O)O)[C@@H](O[C@H]5O[C@H](COS(=O)(=O)O)[C@@H](O)[C@H](O)[C@H]5NS(=O)(=O)O)[C@H](O)[C@H]4O)[C@H](OS(=O)(=O)O)[C@H]3NS(=O)(=O)O)[C@H](O)[C@H]2OS(=O)(=O)O)[C@H](O)[C@H]1NS(=O)(=O)O [Arixtra]	no effect					
O=S(=O)(O)c1cc2c(O)c(c1)Cc1cc(S(=O)(=O)O)cc(c1O)Cc1cc(S(=O)(=O)O)cc(c1O)Cc1cc(S(=O)(=O)O)cc(c1O)Cc1cc(S(=O)(=O)O)cc(c1O)Cc1cc(S(=O)(=O)O)cc(c1O)Cc1cc(S(=O)(=O)O)cc(c1O)Cc1cc(S(=O)(=O)O)cc(c1O)C2 [GL-522-Y-1]	67%	heparin-like antithrombotic activity	58	61	no significant anticoagulant activity	
Cc1ccc(C(=O)Nc2ccc(S(=O)(=O)O)c3cc(S(=O)(=O)O)cc(S(=O)(=O)O)c23)cc1NC(=O)c1cccc(NC(=O)Nc2cccc(C(=O)Nc3cc(C(=O)Nc4ccc(S(=O)(=O)O)c5cc(S(=O)(=O)O)cc(S(=O)(=O)O)c45)ccc3C)c2)c1 [suramin]						inhibits glypican-Slit interactions to the same extent as large heparin oligosaccharides
